Experiment [1] has as its system HCV genotype 1b replicon. Briefly: HCV replicon assay, genotype 1b replicon EC50. Type of experiment: cell-based, Hepatitis C virus. The following applies: HCV replicon, genotype 1b, read-out: EC50 [gt-1b]. In a few lines: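 Readout was replicon RNA copy number, by 32P-probe protection or TaqMan normalized to cellular cyclophilin A RNA, or luciferase activity for luciferase:Neo^r fusion lines. Cells were exposed to serially diluted compound for 24-48 hours without G418, then washed and lysed. EC50 derived from four-parameter fit relative to DMSO.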

The target in experiment [2] is HCV NS3/4A protease genotype 1b (Hepatitis C virus genotype 1b, UniProt P26663). The experiment can be described thus: HCV NS3/4A protease time-resolved fluorescence (TRF) assay, Ki against genotype 1b. In kind it is biochemical. The following applies: IC50 [gt-1b], NS3/4A protease TRF assay, genotype 1b enzyme 0.2 nM. In a few lines:
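First, protease (genotype 1b 0.2 nM, A156T 0.4 nM, genotype 3a 0.025 nM) is preincubated 30 min with inhibitor. Next, 25 nM TRF substrate starts the reaction, run 2.5 h at room temperature. Finally, europium fluorescence is read and Ki calculated from IC50.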

Where two headings read alike, the source gives them in different places.

By EC50 is commonly meant the concentration that produces a half-maximal response. Broadly, the IC50 is the concentration at which inhibition is half-maximal.

For `Cc1ccc2nc(C(F)(F)F)c3c(c2c1)CC[C@]1(C[C@H]2C(=O)N[C@]4(C(=O)NS(=O)(=O)C5(C)CC5)C[C@H]4/C=C\CCCCC[C@H](NC(=O)OCC(C)C)C(=O)N2C1)O3` [Example 390, 2-methylpropyl [(2R,6S,12Z,13aS,14aR,16aS)-9′-methyl-14a-{[(1-methylcyclopropyl)sulfonyl]carbamoyl}-5,16-dioxo-5′-(trifluoromethyl)-1,1′,2′,5,6,7,8,9,10,11,13a,14,14a,15,16,16a-hexadecahydrospiro[cyclopropa[e]pyrrolo[1,2-a][1,4]diazacyclopentadecine-2,3′-pyrano[2,3-c]quinolin]-6-yl]carbamate], the EC50 in experiment [1] (Hepatitis C virus) was 15.5 nM. Moreover, it took 0.015 nM to reach half-maximal inhibition in experiment [2] (IC50).

With `[2H]C([2H])(F)Oc1ccc2nc(C)c3c(c2c1)[C@H](F)C[C@]1(C[C@H]2C(=O)N[C@]4(C(=O)NS(=O)(=O)C5(C)CC5)C[C@H]4/C=C\CCCCC[C@H](NC(=O)OCC(C)C)C(=O)N2C1)O3` [Example 402, 2-methylpropyl [(1′R,2S,6S,12Z,13aS,14aR,16aS)-1′-fluoro-9′-{[fluoro(^2H2)methyl]oxy}-5′-methyl-14a-{[(1-methylcyclopropyl)sulfonyl]carbamoyl}-5,16-dioxo-1,1′,2′,5,6,7,8,9,10,11,13a,14,14a,15,16,16a-hexadecahydrospiro[cyclopropa[e]pyrrolo[1,2-a][1,4]diazacyclopentadecine-2,3′-pyrano[2,3-c]quinolin]-6-yl]carbamate], the EC50 in experiment [1] (Hepatitis C virus, K+ salt) stood at 2.27 nM. For the same compound, in experiment [2] (K+ salt), the IC50 was 0.011 nM.

For the compound `[2H]C([2H])(F)Oc1ccc2nc(C)c3c(c2c1)[C@H](F)C[C@]1(C[C@H]2C(=O)N[C@]4(C(=O)NS(=O)(=O)C5(C)CC5)C[C@H]4/C=C\CCCCC[C@H](NC(=O)OCC(C)(C)C)C(=O)N2C1)O3` [Example 403, 2,2-dimethylpropyl [(1′R,2S,6S,12Z,13aS,14aR,16aS)-1′-fluoro-9′-{[fluoro(^2H2)methyl]oxy}-5′-methyl-14a-{[(1-methylcyclopropyl)sulfonyl]carbamoyl}-5,16-dioxo-1,1′,2′,5,6,7,8,9,10,11,13a,14,14a,15,16,16a-hexadecahydrospiro[cyclopropa[e]pyrrolo[1,2-a][1,4]diazacyclopentadecine-2,3′-pyrano[2,3-c]quinolin]-6-yl]carbamate], the EC50 in experiment [1] (Hepatitis C virus, K+ salt) came to 1.92 nM. Moreover, the IC50 in experiment [2] (K+ salt) is 0.013 nM.

Take `COc1ccc2nc(C)c3c(c2c1)[C@H](F)C[C@]1(C[C@H]2C(=O)N[C@]4(C(=O)NS(=O)(=O)C5(C)CC5)C[C@H]4/C=C\CCCCC[C@H](NC(=O)OC(C)C(C)(C)C)C(=O)N2C1)O3` (stereo partly drawn) [Example 404, 3,3-dimethylbutan-2-yl [(l′R,2S,6S,12Z,13aS,14aR,16aS)-1′-fluoro-9′-methoxy-5′-methyl-14a-{[(1-methylcyclopropyl)sulfonyl]carbamoyl}-5,16-dioxo-1,1′,2′,5,6,7,8,9,10,11,13a,14,14a,15,16,16a-hexadecahydrospiro[cyclopropa[e]pyrrolo[1,2-a][1,4]diazacyclopentadecine-2,3′-pyrano[2,3-c]quinolin]-6-yl]carbamate]: the EC50 in experiment [1] (Hepatitis C virus) was 1.23 nM. Also, the IC50 in experiment [2] is 0.018 nM.

For `Cc1nc2ccc(F)cc2c2c1O[C@]1(CC2)C[C@H]2C(=O)N[C@]3(C(=O)NS(=O)(=O)C4(C)CC4)C[C@H]3/C=C\CCCCC[C@H](NC(=O)OC(C)(C)C(F)(F)F)C(=O)N2C1` [Example 405, 1,1,1-trifluoro-2-methylpropan-2-yl [(2R,6S,12Z,13aS,14aR,16aS)-9′-fluoro-5′-methyl-14a-{[(1-methylcyclopropyl)sulfonyl]carbamoyl}-5,16-dioxo-1,1′,2′,5,6,7,8,9,10,11,13a,14,14a,15,16,16a-hexadecahydrospiro[cyclopropa[e]pyrrolo[1,2-a][1,4]diazacyclopentadecine-2,3′-pyrano[2,3-c]quinolin]-6-yl]carbamate], the EC50 in experiment [1] (Hepatitis C virus) stood at 0.813 nM. In experiment [2], this compound displayed an IC50 of 0.021 nM.

`Cc1nc2ccc(F)cc2c2c1O[C@]1(CC2)C[C@H]2C(=O)N[C@]3(C(=O)NS(=O)(=O)C4(C)CC4)C[C@H]3/C=C\CCCCC[C@H](NC(=O)OCC(C)(C)C)C(=O)N2C1` [Example 406, 2,2-dimethylpropyl [(2R,6S,12Z,13aS,14aR,16aS)-9′-fluoro-5′-methyl-14a-{[(1-methylcyclopropyl)sulfonyl]carbamoyl}-5,16-dioxo-1,1′,2′,5,6,7,8,9,10,11,13a,14,14a,15,16,16a-hexadecahydrospiro[cyclopropa[e]pyrrolo[1,2-a][1,4]diazacyclopentadecine-2,3′-pyrano[2,3-c]quinolin]-6-yl]carbamate]: the EC50 in experiment [1] (Hepatitis C virus) worked out at 1 nM. The compound further yielded a concentration for half-maximal inhibition (IC50) in experiment [2] of 0.013 nM.

Regarding `COc1ccc2nc(C)c3c(c2c1)CC[C@]1(C[C@H]2C(=O)N[C@]4(C(=O)NS(=O)(=O)C5(C)CC5)C[C@H]4/C=C\CCCCC[C@H](NC(=O)OC(C(C)C)C(F)(F)F)C(=O)N2C1)O3` (stereo partly drawn) [Example 407, 1,1,1-trifluoro-3-methylbutan-2-yl [(2R,6S,12Z,13aS,14aR,16aS)-9′-methoxy-5′-methyl-14a-{[(1-methylcyclopropyl)sulfonyl]carbamoyl}-5,16-dioxo-1,1′,2′,5,6,7,8,9,10,11,13a,14,14a,15,16,16a-hexadecahydrospiro[cyclopropa[e]pyrrolo[1,2-a][1,4]diazacyclopentadecine-2,3′-pyrano[2,3-c]quinolin]-6-yl]carbamate], the EC50 in experiment [1] (Hepatitis C virus, K+ salt) amounted to 1.5 nM. The IC50 in experiment [2] (K+ salt) was 0.019 nM.

Turning to `COc1ccc2nc(C)c3c(c2c1)CC[C@]1(C[C@H]2C(=O)N[C@]4(C(=O)NS(=O)(=O)C5(C)CC5)C[C@H]4/C=C\CCCCC[C@H](NC(=O)OC(C(C)C)C(F)(F)F)C(=O)N2C1)O3` (stereo partly drawn) [Example 408, 1,1,1-trifluoro-3-methylbutan-2-yl [(2R,6S,12Z,13aS,14aR,16aS)-9′-methoxy-5′-methyl-14a-{[(1-methylcyclopropyl)sulfonyl]carbamoyl}-5,16-dioxo-1,1′,2′,5,6,7,8,9,10,11,13a,14,14a,15,16,16a-hexadecahydrospiro[cyclopropa[e]pyrrolo[1,2-a][1,4]diazacyclopentadecine-2,3′-pyrano[2,3-c]quinolin]-6-yl]carbamate], in experiment [1] (K+ salt), the EC50 came out at 1.23 nM. Further, the concentration for half-maximal inhibition (IC50) in experiment [2] (K+ salt) came to 0.023 nM.

As for `COCCOc1ccc2nc(C)c3c(c2c1)CC[C@]1(C[C@H]2C(=O)N[C@]4(C(=O)NS(=O)(=O)C5(C)CC5)C[C@H]4/C=C\CCCCC[C@H](NC(=O)OC(C)(C)C)C(=O)N2C1)O3` [Example 409, tert-butyl [(2R,6S,12Z,13aS,14aR,16aS)-9′-(2-methoxyethoxy)-5′-methyl-14a-{[(1-methylcyclopropyl)sulfonyl]carbamoyl}-5,16-dioxo-1,1′,2′,5,6,7,8,9,10,11,13a,14,14a,15,16,16a-hexadecahydrospiro[cyclopropa[e]pyrrolo[1,2-a][1,4]diazacyclopentadecine-2,3′-pyrano[2,3-c]quinolin]-6-yl]carbamate], the EC50 in experiment [1] (Hepatitis C virus) was found to be 4.73 nM. This compound also displayed an IC50 in experiment [2] of 0.02 nM.

Source of the values: patent publication US8987195B2 (priority 2012, dated 2015).
